Where two headings read alike, the source gives them in different places.
Experiments:
Format in all cases: in vivo
[1] = system: rice (Oryra sativa); experiment: Test B flooded paddy test; conditions: Oryza sativa, 250 g ai/ha, Flood, read-out: Rice plant response rating
How it was run: (§1)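 Rating scale 0–100 (visual, vs untreated controls) after a 13–15 d greenhouse period; application to the flood layer, 3 cm above soil and maintained; plants at 2-leaf stage when treated.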

[2] = system: barnyardgrass (Echinochloa crus-galli); experiment: Test B flooded paddy test; conditions: Echinochloa crus-galli, 250 g ai/ha, Flood, read-out: Barnyardgrass plant response rating
How it was run: as §1

[3] = system: ducksalad (Heteranthera limosa); experiment: Test B flooded paddy test; conditions: Heteranthera limosa, 250 g ai/ha, Flood, read-out: Ducksalad plant response rating
How it was run: as §1

[4] = system: sedge, umbrella (small-flower umbrella sedge, Cyperus difformis); experiment: Test B flooded paddy test; conditions: Cyperus difformis, 250 g ai/ha, Flood; 0 to 100 scale where 0 is no effect and 100 is complete control; read-out: Sedge, Umbrella plant response rating
How it was run: as §1

[5] = system: pigweed (Amaranthus retroflexus); experiment: Test A preemergence; conditions: Amaranthus retroflexus, pre-emergence, 240 h; for pest or weed control at 125 g/ha: 125 g ai/ha; for pest or weed control at 500 g/ha: 500 g ai/ha, visual injury rating about 10 d after treatment, 0 to 100 scale (0 no effect, 100 complete control)
[6] = system: corn (Zea mays); experiment: Test A postemergence; conditions: Zea mays, post-emergence, 240 h
How it was run: (§2)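 Treatment is preemergence as a directed soil spray after planting, or postemergence at the one- to two-leaf stage, with test chemical in a non-phytotoxic solvent mixture plus surfactant. Plants stay in the greenhouse about 10 d before visual injury scoring on a 0 to 100 scale versus untreated controls.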

[7] = system: Kochia (Kochia scoparia); experiment: Test A postemergence; conditions: Bassia scoparia, post-emergence, 240 h; for pest or weed control at 125 g/ha: 125 g ai/ha
How it was run: as §2

[8] = system: ryegrass, Italian (Italian ryegrass, Lolium multiflorum); experiment: Test A postemergence; conditions: Lolium multiflorum, post-emergence, 240 h; for pest or weed control at 125 g/ha: 125 g ai/ha
How it was run: as §2

[9] = system: blackgrass (Alopecurus myosuroides); experiment: Test A postemergence; conditions: Alopecurus myosuroides, post-emergence, 240 h; for pest or weed control at 125 g/ha: 125 g ai/ha
How it was run: as §2

[10] = system: ragweed (common ragweed, Ambrosia elatior); experiment: Test A postemergence; conditions: Ambrosia artemisiifolia, post-emergence, 240 h; for pest or weed control at 125 g/ha: 125 g ai/ha
How it was run: as §2

[11] = system: giant foxtail (Setaria faberii); experiment: Test A postemergence; conditions: Setaria faberi, post-emergence, 240 h; for pest or weed control at 125 g/ha: 125 g ai/ha
How it was run: as §2

[12] = system: pigweed (Amaranthus retroflexus); experiment: Test A postemergence; conditions: Amaranthus retroflexus, post-emergence, 240 h; for pest or weed control at 125 g/ha: 125 g ai/ha
How it was run: as §2

[13] = system: barnyardgrass (Echinochloa crus-galli); experiment: Test A postemergence; conditions: Echinochloa crus-galli, post-emergence, 240 h; for pest or weed control at 125 g/ha: 125 g ai/ha
How it was run: as §2

[14] = system: wheat (Triticum aestivum); experiment: Test A postemergence; conditions: Triticum aestivum, post-emergence, 240 h; for plant injury at 125 g/ha: 125 g ai/ha
How it was run: as §2

[15] = system: Galium (catchweed bedstraw, Galium aparine); experiment: Test A postemergence; conditions: Galium, post-emergence, 240 h; for pest or weed control at 125 g/ha: 125 g ai/ha
How it was run: as §2

[16] = 0 to 100 scale where 0 is no effect and 100 is complete control
[17] = preemergence, read-out: Pigweed plant response rating
[18] = scale of 0 to 100 where 0 is no effect and 100 is complete control

**Q.** How did the pest or weed control at 250 g/ha [1, 16] turn out when `Cc1cc([C@H]2CN(C)C(=O)[C@@H]2C(=O)Nc2ccc(F)c(F)c2F)ccc1Br` [Compound 1101] was run?
**A.** 0%

**Q.** What about the pest or weed control at 250 g/ha [2, 16] of the same molecule?
**A.** 30%

**Q.** And the pest or weed control at 250 g/ha [3, 16]?
**A.** 60%

**Q.** What about the pest or weed control at 250 g/ha [4] of the same molecule?
**A.** 0%

**Q.** What about the pest or weed control at 125 g/ha ([5]; preemergence, 0 to 100 scale where 0 is no effect and 100 is complete control, approx. 10 d, read-out: Pigweed plant response rating) of the same molecule?
**A.** 0%

**Q.** And the pest or weed control at 500 g/ha [5, 17]?
**A.** 20%

**Q.** What about the plant injury at 125 g/ha ([6]; 125 g ai/ha, postemergence, visual injury on 0 to 100 scale (0 no effect, 100 complete control), approx. 10 d, read-out: Corn plant response rating) of the same molecule?
**A.** 30%

**Q.** What about the plant injury at 500 g/ha ([6]; 500 g ai/ha, postemergence, 0 to 100 scale, 0 is no effect, 100 is complete control, read-out: Corn plant response rating) of the same molecule?
**A.** 70%

**Q.** And the pest or weed control at 125 g/ha ([7]; postemergence, visual injury on 0 to 100 scale (0 no effect, 100 complete control), approx. 10 d, read-out: Kochia plant response rating)?
**A.** 30%

**Q.** What about the pest or weed control at 500 g/ha ([7]; 500 g ai/ha, postemergence, 0 to 100 scale, 0 is no effect, 100 is complete control, read-out: Kochia plant response rating) of the same molecule?
**A.** 60%

**Q.** What about the pest or weed control at 125 g/ha ([8]; postemergence, visual injury on 0 to 100 scale (0 no effect, 100 complete control), approx. 10 d, read-out: Ryegrass, Italian plant response rating) of the same molecule?
**A.** 20%

**Q.** And the pest or weed control at 500 g/ha ([8]; 500 g ai/ha, postemergence, 0 to 100 scale, 0 is no effect, 100 is complete control, read-out: Ryegrass, Italian plant response rating)?
**A.** 60%

**Q.** What about the pest or weed control at 125 g/ha ([9]; postemergence, visual injury on 0 to 100 scale (0 no effect, 100 complete control), approx. 10 d, read-out: Blackgrass plant response rating) of the same molecule?
**A.** 0%

**Q.** What about the pest or weed control at 500 g/ha ([9]; 500 g ai/ha, postemergence, 0 to 100 scale, 0 is no effect, 100 is complete control, read-out: Blackgrass plant response rating) of the same molecule?
**A.** 30%

**Q.** What about the pest or weed control at 125 g/ha ([10]; postemergence, visual injury on 0 to 100 scale (0 no effect, 100 complete control), approx. 10 d, read-out: Ragweed plant response rating) of the same molecule?
**A.** 0%

**Q.** And the pest or weed control at 500 g/ha ([10]; 500 g ai/ha, postemergence, 0 to 100 scale, 0 is no effect, 100 is complete control, read-out: Ragweed plant response rating)?
**A.** 0%

**Q.** And the pest or weed control at 125 g/ha ([11]; postemergence, visual injury on 0 to 100 scale (0 no effect, 100 complete control), approx. 10 d, read-out: Foxtail, Giant plant response rating)?
**A.** 70%

**Q.** What about the pest or weed control at 500 g/ha ([11]; 500 g ai/ha, postemergence, 0 to 100 scale, 0 is no effect, 100 is complete control, read-out: Foxtail, Giant plant response rating) of the same molecule?
**A.** 80%

**Q.** What about the pest or weed control at 125 g/ha ([12]; postemergence, visual injury on 0 to 100 scale (0 no effect, 100 complete control), approx. 10 d, read-out: Pigweed plant response rating) of the same molecule?
**A.** 30%

**Q.** And the pest or weed control at 500 g/ha ([12]; 500 g ai/ha, postemergence, 0 to 100 scale, 0 is no effect, 100 is complete control, read-out: Pigweed plant response rating)?
**A.** 50%

**Q.** What about the pest or weed control at 125 g/ha ([13]; postemergence, visual injury on 0 to 100 scale (0 no effect, 100 complete control), approx. 10 d, read-out: Barnyardgrass plant response rating) of the same molecule?
**A.** 70%

**Q.** And the pest or weed control at 500 g/ha ([13]; 500 g ai/ha, postemergence, 0 to 100 scale, 0 is no effect, 100 is complete control, read-out: Barnyardgrass plant response rating)?
**A.** 80%

**Q.** What about the plant injury at 125 g/ha ([14]; postemergence, visual injury on 0 to 100 scale (0 no effect, 100 complete control), approx. 10 d, read-out: Wheat plant response rating) of the same molecule?
**A.** 0%

**Q.** And the plant injury at 500 g/ha ([14]; 500 g ai/ha, postemergence, 0 to 100 scale, 0 is no effect, 100 is complete control, read-out: Wheat plant response rating)?
**A.** 50%

**Q.** What about the pest or weed control at 125 g/ha ([15]; postemergence, visual injury on 0 to 100 scale (0 no effect, 100 complete control), approx. 10 d, read-out: Galium plant response rating) of the same molecule?
**A.** 50%

**Q.** And the pest or weed control at 500 g/ha ([15]; 500 g ai/ha, postemergence, 0 to 100 scale, 0 is no effect, 100 is complete control, read-out: Galium plant response rating)?
**A.** 60%

**Q.** `CN1C[C@H](c2cc(F)cc(C(F)(F)F)c2)[C@@H](C(=O)Nc2ccc(F)c(F)c2F)C1=O` [Compound 993] was tested. Which pest or weed control at 250 g/ha [1, 18] did it give?
**A.** 40%

**Q.** What about the pest or weed control at 250 g/ha [2, 18] of the same molecule?
**A.** 70%

**Q.** And the pest or weed control at 250 g/ha [3, 18]?
**A.** 85%

**Q.** And the pest or weed control at 250 g/ha [4]?
**A.** 60%

**Q.** What about the pest or weed control at 125 g/ha ([5]; Preemergence, visual injury rating after approximately 10 d, read-out: Pigweed plant response rating (0 to 100 scale, 0 is no effect, 100 is complete control)) of the same molecule?
**A.** 40%

**Q.** What about the pest or weed control at 500 g/ha [5, 17] of the same molecule?
**A.** 80%

**Q.** And the Corn plant response rating (crop injury, 0 = no effect, 100 = complete kill) at 125 g/ha ([6]; 125 g ai/ha, Postemergence, visual injury after approximately 10 d, 0 to 100 scale where 0 is no effect and 100 is complete control)?
**A.** 80%

**Q.** What about the pest or weed control at 125 g/ha ([7]; Postemergence, visual injury after approximately 10 d, 0 to 100 scale where 0 is no effect and 100 is complete control, read-out: Plant response rating, Kochia) of the same molecule?
**A.** 20%

**Q.** What about the pest or weed control at 125 g/ha ([8]; Postemergence, visual injury after approximately 10 d, 0 to 100 scale where 0 is no effect and 100 is complete control, read-out: Plant response rating, Ryegrass, Italian) of the same molecule?
**A.** 50%

**Q.** What about the pest or weed control at 125 g/ha ([9]; Postemergence, visual injury after approximately 10 d, 0 to 100 scale where 0 is no effect and 100 is complete control, read-out: Plant response rating, Blackgrass) of the same molecule?
**A.** 70%

**Q.** And the pest or weed control at 125 g/ha ([10]; Postemergence, visual injury after approximately 10 d, 0 to 100 scale where 0 is no effect and 100 is complete control, read-out: Plant response rating, Ragweed)?
**A.** 0%

**Q.** And the pest or weed control at 125 g/ha ([11]; Postemergence, visual injury after approximately 10 d, 0 to 100 scale where 0 is no effect and 100 is complete control, read-out: Plant response rating, Foxtail, Giant)?
**A.** 90%

**Q.** And the pest or weed control at 125 g/ha ([12]; Postemergence, visual injury after approximately 10 d, 0 to 100 scale where 0 is no effect and 100 is complete control, read-out: Plant response rating, Pigweed)?
**A.** 30%

**Q.** What about the pest or weed control at 125 g/ha ([13]; Postemergence, visual injury after approximately 10 d, 0 to 100 scale where 0 is no effect and 100 is complete control, read-out: Plant response rating, Barnyardgrass) of the same molecule?
**A.** 90%

**Q.** What about the plant injury at 125 g/ha ([14]; Postemergence, visual injury after approximately 10 d, 0 to 100 scale where 0 is no effect and 100 is complete control, read-out: Plant response rating, Wheat) of the same molecule?
**A.** 50%

**Q.** What about the pest or weed control at 125 g/ha ([15]; Postemergence, visual injury after approximately 10 d, 0 to 100 scale where 0 is no effect and 100 is complete control, read-out: Plant response rating, Galium) of the same molecule?
**A.** 60%
